Data set [1] addresses T1, reuptake of dopamine (DA) in synaptosomes (Rattus norvegicus, UniProt P23977).
T1 construct: in synaptosomes as described in WO 97/16451 (NeuroSearch A/S); from tissue
The data set can be described thus: In vitro inhibition of DA reuptake in synaptosomes. It is filed as biochemical.

The target of data set [2] is T2, reuptake of noradrenaline (NA) in synaptosomes (Rattus norvegicus, UniProt Q63380).
T2 construct: in synaptosomes as described in WO 97/16451 (NeuroSearch A/S); from tissue
T2 sequence (Q63380 1-617): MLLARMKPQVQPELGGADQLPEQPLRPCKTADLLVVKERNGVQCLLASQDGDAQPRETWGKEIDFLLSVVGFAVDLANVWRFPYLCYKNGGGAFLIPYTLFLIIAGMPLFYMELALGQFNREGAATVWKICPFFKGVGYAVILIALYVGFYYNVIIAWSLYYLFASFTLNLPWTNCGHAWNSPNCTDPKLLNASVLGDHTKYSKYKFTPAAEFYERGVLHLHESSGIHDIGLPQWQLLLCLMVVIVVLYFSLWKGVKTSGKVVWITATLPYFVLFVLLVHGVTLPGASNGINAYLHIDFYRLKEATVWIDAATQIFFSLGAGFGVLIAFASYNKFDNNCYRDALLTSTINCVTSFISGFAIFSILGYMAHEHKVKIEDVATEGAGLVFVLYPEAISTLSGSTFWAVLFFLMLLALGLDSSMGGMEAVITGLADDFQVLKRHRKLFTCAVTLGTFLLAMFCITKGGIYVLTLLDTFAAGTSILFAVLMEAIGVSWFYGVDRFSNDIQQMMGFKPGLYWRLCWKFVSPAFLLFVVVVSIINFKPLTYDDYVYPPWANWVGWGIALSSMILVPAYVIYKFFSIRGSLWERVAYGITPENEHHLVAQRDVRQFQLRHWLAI
The data set can be described thus: In vitro inhibition of NA reuptake in synaptosomes. The class given is biochemical.

The target in data set [3] is T3, reuptake of serotonine (5-HT) in synaptosomes (Rattus norvegicus, UniProt P31652).
T3 construct: in synaptosomes as described in WO 97/16451 (NeuroSearch A/S); from tissue
T3 sequence (P31652 whole entry): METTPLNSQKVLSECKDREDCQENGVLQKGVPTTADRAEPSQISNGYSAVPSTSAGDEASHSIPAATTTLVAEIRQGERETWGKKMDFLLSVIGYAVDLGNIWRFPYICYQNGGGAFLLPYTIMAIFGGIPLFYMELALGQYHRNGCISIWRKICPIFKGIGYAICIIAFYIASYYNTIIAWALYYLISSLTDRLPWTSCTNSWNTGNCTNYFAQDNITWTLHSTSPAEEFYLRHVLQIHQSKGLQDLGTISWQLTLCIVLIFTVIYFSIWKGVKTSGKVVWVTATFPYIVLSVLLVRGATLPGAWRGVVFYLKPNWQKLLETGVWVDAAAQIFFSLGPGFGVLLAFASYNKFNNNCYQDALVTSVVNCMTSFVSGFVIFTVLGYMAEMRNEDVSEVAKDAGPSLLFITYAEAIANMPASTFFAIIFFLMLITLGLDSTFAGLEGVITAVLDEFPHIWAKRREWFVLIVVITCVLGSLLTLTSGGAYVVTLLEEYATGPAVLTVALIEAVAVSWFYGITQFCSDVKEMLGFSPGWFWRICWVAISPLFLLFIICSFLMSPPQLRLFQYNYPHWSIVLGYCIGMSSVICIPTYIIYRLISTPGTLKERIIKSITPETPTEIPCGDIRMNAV
The data set can be described thus: In vitro inhibition of 5-HT reuptake in synaptosomes. The class given is biochemical. The method, then: Compounds were tested for their ability to inhibit the reuptake of the monoamine neurotransmitters dopamine (DA) noradrenaline (NA) and serotonine (5-HT) in synaptosomes as described in WO 97/16451 (NeuroSearch A/S).
The test values are given as IC50 (the concentration (μM) of the test substance which inhibits the specific binding of ^3H-DA, ^3H-NA, or ^3H-5-HT by 50%).

Counter-ions that a name gives are not always drawn. Like-named read-outs stand apart in the source and are kept apart here.

T1 sequence (P23977 whole entry): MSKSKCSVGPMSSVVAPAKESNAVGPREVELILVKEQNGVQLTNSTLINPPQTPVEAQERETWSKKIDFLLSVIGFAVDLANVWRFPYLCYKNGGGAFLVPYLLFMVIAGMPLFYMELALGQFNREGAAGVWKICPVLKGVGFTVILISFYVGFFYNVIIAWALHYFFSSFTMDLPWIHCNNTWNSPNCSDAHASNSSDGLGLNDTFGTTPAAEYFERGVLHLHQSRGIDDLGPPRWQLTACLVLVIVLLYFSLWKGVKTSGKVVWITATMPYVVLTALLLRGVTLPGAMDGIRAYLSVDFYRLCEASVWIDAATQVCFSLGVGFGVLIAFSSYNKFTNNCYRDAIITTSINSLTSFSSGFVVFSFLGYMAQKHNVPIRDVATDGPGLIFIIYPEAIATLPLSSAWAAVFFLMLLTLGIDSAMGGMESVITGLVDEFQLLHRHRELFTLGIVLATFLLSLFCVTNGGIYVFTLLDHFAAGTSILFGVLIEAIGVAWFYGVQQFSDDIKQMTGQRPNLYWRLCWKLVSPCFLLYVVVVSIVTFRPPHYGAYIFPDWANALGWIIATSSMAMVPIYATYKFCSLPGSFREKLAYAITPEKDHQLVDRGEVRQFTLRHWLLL

By melting point is commonly meant the temperature of the solid-liquid transition. Turning to `CN1CC=C(C(c2ccccc2)c2ccccc2)CC1` (as salt: fumaric acid salt) [4-Benzhydryl-1-methyl-1,2,3,6-tetrahydro-pyridine], the melting point lay in the range of 177.6 to 179.2 °C.
A word on the IC50: it is the midpoint of a concentration-inhibition curve. For `C1=C(C(c2ccccc2)c2ccccc2)CCNC1` [4-Benzhydryl-1,2,3,6-tetrahydro-pyridine], the IC50 came to 63 nM in data set [1], 45 nM in data set [2] and 3.5 nM in data set [3].
As to `CN1CC=C(C(c2ccccc2)c2ccccc2)CC1` [4-Benzhydryl-1-methyl-1,2,3,6-tetrahydro-pyridine], the IC50 in data set [1] (synaptosomes, 3H-DA, read-out: DA-uptake IC50) was 580 nM; in data set [2] (synaptosomes, 3H-NA, read-out: NA-uptake IC50) it was 600 nM; in data set [3] (synaptosomes, 3H-5-HT, read-out: 5-HT-uptake IC50), above 1000 nM.

The record behind these values is patent publication US20110082166A1, “NOVEL 4-BENZHYDRYL-TETRAHYDRO-PYRIDINE DERIVATIVES AND THEIR USE AS MONOAMINE NEUROTRANSMITTER RE-UPTAKE INHIBITORS” (NEUROSEARCH A/S, priority 2008, published 2011).
